The values below are quoted from earlier work in patent publication US6623775B2, “Treating or preventing illness growth of Clostridium difficile” (S.S. Steiner, Inc., priority 1997, dated 2003).

The conditions of the data set: degree of ionization taken into account.

Regarding `CC(C)=CCC(=O)[C@@]1(O)C(O)=C(C(=O)CC(C)C)C(=O)[C@H]1CC=C(C)C` (relative stereo) [trans-isohumulone], the “Antibacterial activity relative to colupulone” value is 11 times, the “Antibacterial activity relative to humulone” value is listed as “about 20 times” and the “Antibacterial activity relative to trans-humulinic acid” value is recorded as “nine”.
